Laboratory results published in patent publication US10245267B2, “Biaryl amide compounds as kinase inhibitors” (NOVARTIS AG, priority 2013, dated 2019).
Where two headings read alike, the source gives them in different places.

Assays:
[1] = target: C-Raf FL (full-length C-Raf protein) (Homo sapiens (Human), UniProt P04049, Y340E/Y341E); assay type: biochemical; details: read-out: c-Raf FL IC-50
b-Raf(V600E) = b-Raf(V600E) (Homo sapiens (Human), UniProt P15056, V600E); details: read-out: b-Raf IC-50; Table 2; Alpha Screen, ATP 10 μM, 3 hours reaction
[2] = Table 2, Alpha Screen, ATP 1 uM, 1 hour reaction

C-Raf FL (full-length C-Raf protein), sequence (P04049 whole entry Y340E/Y341E): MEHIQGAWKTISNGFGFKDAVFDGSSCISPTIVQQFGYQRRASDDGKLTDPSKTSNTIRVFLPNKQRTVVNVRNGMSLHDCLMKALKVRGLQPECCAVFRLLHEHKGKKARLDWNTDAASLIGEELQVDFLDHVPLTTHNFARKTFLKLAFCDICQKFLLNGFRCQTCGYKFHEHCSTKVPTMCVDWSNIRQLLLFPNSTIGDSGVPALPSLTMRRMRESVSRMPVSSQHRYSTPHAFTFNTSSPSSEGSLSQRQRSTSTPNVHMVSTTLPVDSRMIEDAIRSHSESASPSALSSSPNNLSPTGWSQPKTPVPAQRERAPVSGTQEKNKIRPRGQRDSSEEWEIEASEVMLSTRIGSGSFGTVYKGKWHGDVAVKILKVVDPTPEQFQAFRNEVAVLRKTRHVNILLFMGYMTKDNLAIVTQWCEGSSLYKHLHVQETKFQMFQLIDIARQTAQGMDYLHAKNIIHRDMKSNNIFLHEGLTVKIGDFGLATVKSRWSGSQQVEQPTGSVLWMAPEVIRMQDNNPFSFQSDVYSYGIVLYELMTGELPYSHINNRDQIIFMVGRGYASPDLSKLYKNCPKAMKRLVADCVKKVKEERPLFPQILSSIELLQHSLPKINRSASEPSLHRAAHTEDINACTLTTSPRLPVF
C-Raf FL (full-length C-Raf protein), sequence (P63104 whole entry partner): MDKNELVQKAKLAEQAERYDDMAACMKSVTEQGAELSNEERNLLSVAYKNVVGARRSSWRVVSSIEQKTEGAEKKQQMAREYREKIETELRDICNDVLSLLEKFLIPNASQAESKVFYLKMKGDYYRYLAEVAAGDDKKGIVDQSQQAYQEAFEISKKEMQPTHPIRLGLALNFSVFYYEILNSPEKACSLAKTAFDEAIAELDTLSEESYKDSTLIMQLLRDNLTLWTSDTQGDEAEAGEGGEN
b-Raf(V600E), sequence (P15056 whole entry V600E): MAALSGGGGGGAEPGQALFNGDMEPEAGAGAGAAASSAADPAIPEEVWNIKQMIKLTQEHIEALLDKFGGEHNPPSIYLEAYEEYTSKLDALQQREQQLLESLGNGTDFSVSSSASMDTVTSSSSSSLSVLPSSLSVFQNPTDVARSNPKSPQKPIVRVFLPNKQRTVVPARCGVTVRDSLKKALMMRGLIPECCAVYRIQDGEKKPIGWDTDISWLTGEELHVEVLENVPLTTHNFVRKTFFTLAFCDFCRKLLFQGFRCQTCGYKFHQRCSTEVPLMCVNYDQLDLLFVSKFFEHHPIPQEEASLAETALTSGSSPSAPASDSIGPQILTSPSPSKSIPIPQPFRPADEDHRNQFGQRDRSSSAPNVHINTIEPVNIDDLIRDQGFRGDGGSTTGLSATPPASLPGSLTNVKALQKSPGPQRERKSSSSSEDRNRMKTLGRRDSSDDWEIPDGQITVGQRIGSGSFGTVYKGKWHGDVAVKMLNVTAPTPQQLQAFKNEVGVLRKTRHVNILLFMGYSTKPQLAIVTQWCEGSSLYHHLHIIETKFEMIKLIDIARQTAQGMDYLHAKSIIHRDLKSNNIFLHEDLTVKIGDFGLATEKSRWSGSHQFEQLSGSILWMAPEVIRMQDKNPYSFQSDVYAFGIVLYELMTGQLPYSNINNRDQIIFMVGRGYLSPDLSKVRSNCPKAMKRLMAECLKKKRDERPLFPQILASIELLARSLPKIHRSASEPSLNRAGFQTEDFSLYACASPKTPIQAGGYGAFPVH

| IC50 [1, 2] [nM] | IC50 (b-Raf(V600E)) [nM] | SMILES | IC50 [1] [nM] |
| --- | --- | --- | --- |
| 0.2 | 0.9 | Cc1ccc(NC(=O)c2cccc(C(F)(F)F)c2)cc1-c1cc(N2CCOCC2)c(OCCO)nn1 [Example 590, N-(3-(6-(2-hydroxyethoxy)-5-morpholinopyridazin-3-yl)-4-methylphenyl)-3-(trifluoromethyl)benzamide] | – |
| 1.6 | 4 | CCNc1nc(-c2cc(C(=O)Nc3cccc(C(F)(F)F)c3)ccc2C)cc(N2CCOCC2)n1 [Example 710, 3-(2-(ethylamino)-6-morpholinopyrimidin-4-yl)-4-methyl-N-(3-(trifluoromethyl)phenyl) benzamide] | – |
| – | 2 | CCNc1nc(-c2cc(NC(=O)c3ccnc(C(F)(F)F)c3)ccc2C)cc(N2CCOCC2)n1 [Example 719, N-(3-(2-(ethylamino)-6-morpholinopyrimidin-4-yl)-4-methylphenyl)-2-(trifluoromethyl) isonicotinamide] | – |
| – | – | Cc1ncc(NC(=O)c2cccc(C(F)(F)F)c2)cc1-c1cc(N2CCOCC2)nc(NC[C@@H](C)O)n1 [Example 743, (R)—N-(5-(2-((2-hydroxypropyl)amino)-6-morpholinopyrimidin-4-yl)-6-methylpyridin-3-yl)-3-(trifluoromethyl) benzamide] | 0.8 |
